# Results taken from ChEMBL document CHEMBL4184126, “Synthesis of novel 6-substituted amino-9-(β-d-ribofuranosyl)purine analogs and their bioactivities on human epithelial cancer cells” (Bioorg Med Chem Lett, 2018).
# Assays:
# Type in all cases: functional, cell-based
# [1] = system: Huh-7; experiment: Antiproliferative activity against human HuH7 cells after 72 hrs by SRB assay
# [2] = system: HCT-116; experiment: Antiproliferative activity against human HCT116 cells after 72 hrs by SRB assay
# [3] = system: MCF7; experiment: Antiproliferative activity against human MCF7 cells after 72 hrs by SRB assay
# [4] = system: HepG2; experiment: Antiproliferative activity against human HepG2 cells after 72 hrs by SRB assay
# [5] = system: Mahlavu; experiment: Antiproliferative activity against human Mahlavu cells after 72 hrs by SRB assay
# [6] = Antiproliferative activity against human FOCUS cells after 72 hrs by SRB assay
# [7] = Homo sapiens, Huh-7, 72 h, read-out: IC50
# [8] = Homo sapiens, HCT-116, 72 h, read-out: IC50
# [9] = Homo sapiens, MCF7, 72 h, read-out: IC50
# [10] = Homo sapiens, HepG2, 72 h, read-out: IC50
# [11] = Homo sapiens, Mahlavu, 72 h, read-out: IC50
# [12] = Homo sapiens, 72 h, read-out: IC50
SMILES,"IC50 [1, 7] [µM]","IC50 [2, 8] [µM]",IC50 ([3]; mcf7),IC50 ([1]; huh-7),IC50 ([2]; hct-116),"IC50 [3, 9] [µM]","IC50 [4, 10] [µM]","IC50 [5, 11] [µM]","IC50 [6, 12] [µM]",IC50 ([4]; hepg2),IC50 [6],IC50 ([5]; mahlavu)
Nc1nc(N2CCN(c3ccc(F)cc3)CC2)c2ncn([C@@H]3O[C@H](CO)[C@@H](O)[C@H]3O)c2n1,> 100,30,Not Active,–,–,–,–,–,–,–,–,–
Cc1ccc(N2CCN(c3nc(N)nc4c3ncn4[C@@H]3O[C@H](CO)[C@@H](O)[C@H]3O)CC2)cc1,–,–,Not Active,Not Active,Not Active,–,–,–,–,–,–,–
OC[C@H]1O[C@@H](n2cnc3c(N4CCN(c5ccc(C(F)(F)F)cc5)CC4)nc(Cl)nc32)[C@H](O)[C@@H]1O,1 to 2,1,–,–,–,4,3,3,1,–,–,–
CSc1ccc(Nc2ncnc3c2ncn3[C@@H]2O[C@H](CO)[C@@H](O)[C@H]2O)cc1,–,> 100,Not Active,Not Active,–,–,–,–,–,–,–,–
Nc1nc(N2CCN(C(c3ccccc3)c3ccccc3)CC2)c2ncn([C@@H]3O[C@H](CO)[C@@H](O)[C@H]3O)c2n1,10,20,–,–,–,20,20,7,20,–,–,–
CC(C)c1ccc(Nc2ncnc3c2ncn3[C@@H]2O[C@H](CO)[C@@H](O)[C@H]2O)cc1,60,10,–,–,–,50,40,40,20,–,–,–
OC[C@H]1O[C@@H](n2cnc3c(Nc4ccc(N5CCOCC5)cc4)ncnc32)[C@H](O)[C@@H]1O,–,–,–,Not Active,Not Active,80,–,–,–,–,–,–
OC[C@H]1O[C@@H](n2cnc3c(N4CCN(C5CCCCC5)CC4)ncnc32)[C@H](O)[C@@H]1O,–,> 100,Not Active,Not Active,–,–,–,–,–,–,–,–
Cc1ccc(N2CCN(c3ncnc4c3ncn4[C@@H]3O[C@H](CO)[C@@H](O)[C@H]3O)CC2)cc1,–,70,–,Not Active,–,> 100,–,> 100,40,Not Active,–,–
CN(C)c1ccc(Nc2ncnc3c2ncn3[C@@H]2O[C@H](CO)[C@@H](O)[C@H]2O)cc1,80,40,–,–,–,30,30,30,20,–,–,–
OC[C@H]1O[C@@H](n2cnc3c(NCCC4=CCCCC4)nc(Cl)nc32)[C@H](O)[C@@H]1O,20,90,–,–,–,30,40,30,50,–,–,–
OC[C@H]1O[C@@H](n2cnc3c(N4CCN(c5ncccn5)CC4)ncnc32)[C@H](O)[C@@H]1O,–,> 100,–,Not Active,–,40,–,–,–,–,–,–
OC[C@H]1O[C@@H](n2cnc3c(NCCC4=CCCCC4)ncnc32)[C@H](O)[C@@H]1O,> 100,6,–,–,–,3,1,> 100,–,–,Not Active,–
Nc1nc(N2CCN(c3ccccc3)CC2)c2ncn([C@@H]3O[C@H](CO)[C@@H](O)[C@H]3O)c2n1,50,30,Not Active,–,–,–,> 100,–,9,–,–,Not Active
Nc1nc(N2CCN(c3ncccn3)CC2)c2ncn([C@@H]3O[C@H](CO)[C@@H](O)[C@H]3O)c2n1,–,–,Not Active,Not Active,Not Active,–,–,–,–,–,–,–
OC[C@H]1O[C@@H](n2cnc3c(NCCNc4ccccc4)ncnc32)[C@H](O)[C@@H]1O,–,30,–,Not Active,–,> 100,–,–,–,–,–,–
Nc1nc(Cl)nc2c1ncn2[C@H]1C[C@H](O)[C@@H](CO)O1 [CLADRIBINE],0.4 to 0.9,< 0.1,–,–,–,–,0.04,0.1,0.4,–,–,–
Nc1nc(F)nc2c1ncn2[C@@H]1O[C@H](CO)[C@@H](O)[C@@H]1O [FLUDARABINE],30,8,–,–,–,15,20,10,10,–,–,–
O=c1[nH]cc(F)c(=O)[nH]1 [FLUOROURACIL],30,4,–,–,–,3,–,10,4,–,–,–
